From ChEMBL document CHEMBL1137476, “Synthesis of the A,B-ring-truncated OSW saponin analogs and their antitumor activities” (Bioorg Med Chem Lett, 2007)

Key:
[1] = test system: Jurkat; assay: Antitumor activity against Jurkat cells; format: functional, cell-based; details: Homo sapiens
[2] = test system: HeLa; assay: Antitumor activity against HeLa cells; format: functional, cell-based; details: Homo sapiens

SMILES	IC50 [1]	IC50 [2]
COc1ccc(C(=O)O[C@H]2[C@H](O[C@H]3[C@H](OC(C)=O)[C@@H](O[C@H]4C[C@H]5C[C@@H](O)CC[C@]5(C)[C@@]4(O)[C@@H](C)C(=O)OCC(C)C)OC[C@H]3O)OC[C@@H](O)[C@@H]2O)cc1	21.1 µM	0.8 µM
COc1ccc(C(=O)O[C@H]2[C@H](O[C@H]3[C@H](OC(C)=O)[C@@H](O[C@H]4C[C@H]5C[C@@H](O)CC[C@]5(C)[C@@]4(O)[C@H](C)C(=O)OCC(C)C)OC[C@H]3O)OC[C@@H](O)[C@@H]2O)cc1	14.5 µM	2.6 µM
COc1ccc(C(=O)O[C@H]2[C@H](O[C@H]3[C@H](OC(C)=O)[C@@H](O[C@H]4C[C@H]5[C@@H]6CC=C7C[C@@H](O)CC[C@]7(C)[C@H]6CC[C@]5(C)[C@@]4(O)[C@H](C)C(=O)OCC(C)C)OC[C@H]3O)OC[C@@H](O)[C@@H]2O)cc1	0.0013 µM	0.24 µM
COc1ccc(C(=O)O[C@H]2[C@H](O[C@H]3[C@H](OC(C)=O)[C@@H](O[C@H]4C[C@H]5CCCC[C@]5(C)[C@@]4(O)[C@H](C)C(=O)OCC(C)C)OC[C@H]3O)OC[C@@H](O)[C@@H]2O)cc1	8.9 µM	14.9 µM
